2 compounds from paper PMC7175278, “2-Oxoester Phospholipase A2 Inhibitors with Enhanced Metabolic Stability” (Biomolecules, 2020) can be followed below.

The target in this assay is T1, GIVA cPLA2 (Homo sapiens, UniProt P47712).
T1 construct: gene PLA2G4A
T1 sequence (P47712 1-749): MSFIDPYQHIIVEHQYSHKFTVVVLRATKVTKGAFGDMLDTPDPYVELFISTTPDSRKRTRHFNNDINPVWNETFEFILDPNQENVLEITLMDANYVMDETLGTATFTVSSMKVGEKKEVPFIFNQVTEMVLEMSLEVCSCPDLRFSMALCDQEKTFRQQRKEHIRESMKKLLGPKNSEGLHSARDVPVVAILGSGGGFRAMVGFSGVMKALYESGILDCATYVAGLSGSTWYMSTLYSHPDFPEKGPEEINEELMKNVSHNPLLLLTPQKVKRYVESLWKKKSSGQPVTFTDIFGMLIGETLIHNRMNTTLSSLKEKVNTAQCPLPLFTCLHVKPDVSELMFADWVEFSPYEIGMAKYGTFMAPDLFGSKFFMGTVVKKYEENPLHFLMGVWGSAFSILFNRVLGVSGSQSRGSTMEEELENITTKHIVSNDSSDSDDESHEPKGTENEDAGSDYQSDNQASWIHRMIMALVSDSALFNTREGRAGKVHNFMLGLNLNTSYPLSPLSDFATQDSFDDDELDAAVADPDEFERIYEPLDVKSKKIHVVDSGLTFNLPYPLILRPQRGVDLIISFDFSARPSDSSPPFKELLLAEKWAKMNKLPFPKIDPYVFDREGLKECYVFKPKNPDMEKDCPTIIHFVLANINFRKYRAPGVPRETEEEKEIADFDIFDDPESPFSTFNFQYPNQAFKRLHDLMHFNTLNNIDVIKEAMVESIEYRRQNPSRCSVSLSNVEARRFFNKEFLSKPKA
In words: LC/MS lipidomics-based mixed micelle assay with recombinant human enzyme, dose-response. It is filed as biochemical.

Regarding `CC(CCCc1ccc(-c2ccccc2)cc1)C(=O)C(=O)OCCCCC(=O)O` (centres unmarked) [17a, 5-((6-([1,1’-Biphenyl]-4-yl)-3-methyl-2-oxohexanoyl)oxy)pentanoic acid], the “GIVA cPLA2 / XI(50)” value is given as 0.00036 ± 0.00007 mole fraction (XI(50)).
The result for `CC(CCCC(=O)O)OC(=O)C(=O)CCCCc1ccc(-c2ccccc2)cc1` (centres unmarked) [17b, 5-((6-([1,1’-Biphenyl]-4-yl)-2-oxohexanoyl)oxy)hexanoic acid] reads 0.0012 ± 0.00008 mole fraction (XI(50)).
